Patent US9877956B2, “Antiviral compounds and methods of use thereof” (Trana Discovery, Inc., priority 2014, dated 2018)
Values joined by “and” are separate entries in the source; they are usually repeats but may differ in a detail not shown here. Identical values can stand only once.

Legend:
Type in all cases: cell-based
[1] = Cytotoxicity in human PBMCs (XTT); settings: PHA-P stimulated PBMCs pooled from three donors; human PBMCs, XTT
Description: (§1) In these studies, PHA-P stimulated PBMCs from three donors were pooled together and re-suspended in fresh tissue culture medium at 1×10^6 cells/mL and plated in the interior wells of a 96 well round bottom microplate at 50µl/well. A 100µL volume of 9 concentrations of compound serially diluted were transferred to the round-bottom 96 well plate containing the cells in triplicate. Fifty microliters (µL) of HIV-1 at a pre-determined dilution was added. Each plate contained cell control wells and virus control wells in parallel with the experimental wells. After 7 days in culture, efficacy was evaluated by measuring the reverse transcriptase in the culture supernatants and the cells were stained with the tetrazolium dye XTT to evaluate cytotoxicity.

HUMAN PBMCS = experiment: Cytotoxicity in human PBMCs (XTT); settings: for TOXICITY VALUES (XTT - O.D. @ 450/650 nm), SAMPLE: individual samples
Description: as §1

HIV-1 92/HT/599 = HIV-1 92/HT/599 replication in human PBMCs, reverse transcriptase in culture supernatants (RLU)
Description: as §1

Q: With `Cc1cn([C@H]2C[C@H](N=[N+]=[N-])[C@@H](CO)O2)c(=O)[nH]c1=O` [AZT, Zidovudine, reference compound] as the molecule, how does the CC50 at 7 days [1] read?
A: Its CC50 at 7 days is greater than 1000 nM.

Q: What about the “% Cell Viability” value (HUMAN PBMCS; 0.003 μM) of the same molecule?
A: Its value is 114.74%.

Q: What about the “TOXICITY VALUES (XTT - O.D. @ 450/650 nm), SAMPLE” value (“TOXICITY VALUES” for short) (HUMAN PBMCS; 0.003 μg/ml (so in the source)) of the same molecule?
A: Its value is 1.2555 O.D. and 1.2949 O.D. and 1.3058 O.D.

Q: And the “% Cell Viability” value (HUMAN PBMCS; 0.01 μM)?
A: The value was 123.74%.

Q: What about the “TOXICITY VALUES” value (HUMAN PBMCS; 0.01 μg/ml (so in the source)) of the same molecule?
A: The value was 1.2369 O.D. and 1.6369 O.D.

Q: What about the “% Cell Viability” value (HUMAN PBMCS; 0.032 μM) of the same molecule?
A: Its value is 111.47%.

Q: And the “TOXICITY VALUES” value (HUMAN PBMCS; 0.032 μg/ml (so in the source))?
A: The value was 1.2990 O.D. and 1.2908 O.D. and 1.1569 O.D.

Q: What about the “% Cell Viability” value (HUMAN PBMCS; 0.32 μM) of the same molecule?
A: The value was 92.20%.

Q: And the “TOXICITY VALUES” value (HUMAN PBMCS; 0.32 μg/ml (AZT table))?
A: Its value is 0.9607 O.D. and 0.9984 O.D. and 1.1398 O.D.

Q: What about the “% Cell Viability” value (HUMAN PBMCS; 1 μM) of the same molecule?
A: The value was 81.66%.

Q: And the “TOXICITY VALUES” value (HUMAN PBMCS; 1 μg/ml (AZT table))?
A: Its value is 1.1224 O.D. and 0.5742 O.D. and 1.0479 O.D.

Q: What about the “TC 25%” value (HUMAN PBMCS; human PBMCs, XTT) of the same molecule?
A: The value was greater than 1.0 µM.

Q: And the “TC 95%” value (HUMAN PBMCS; human PBMCs, XTT)?
A: Its value is greater than 1.0 µM.

Q: And the “% Virus Control” value (HIV-1 92/HT/599; 0.003 μM)?
A: The value was 28.53%.

Q: What about the “Antiviral Test Values Mean RLU” value (HIV-1 92/HT/599; 0.003 μM) of the same molecule?
A: The value was 5503.7 RLU.

Q: And the “% Virus Control” value (HIV-1 92/HT/599; 0.01 μM)?
A: Its value is 10.36%.

Q: What about the “Antiviral Test Values Mean RLU” value (HIV-1 92/HT/599; 0.01 μM) of the same molecule?
A: The value was 1999.0 RLU.

Q: And the “% Virus Control” value (HIV-1 92/HT/599; 0.032 μM)?
A: Its value is 13.16%.

Q: What about the “Antiviral Test Values Mean RLU” value (HIV-1 92/HT/599; 0.032 μM) of the same molecule?
A: Its value is 2538.7 RLU.

Q: What about the “% Virus Control” value (HIV-1 92/HT/599; 0.32 μM) of the same molecule?
A: Its value is 0.99%.

Q: And the “Antiviral Test Values Mean RLU” value (HIV-1 92/HT/599; 0.32 μM)?
A: The value was 190.7 RLU.

Q: What about the “% Virus Control” value (HIV-1 92/HT/599; 1 μM) of the same molecule?
A: Its value is 0.56%.

Q: What about the “Antiviral Test Values Mean RLU” value (HIV-1 92/HT/599; 1 μM) of the same molecule?
A: The value was 112.7 RLU.

Q: And the “EC 25%” value (HIV-1 92/HT/599; HIV-1 92/HT/599, human PBMCs)?
A: Its value is less than 3 nM.

Q: What about the “EC 95%” value (HIV-1 92/HT/599; HIV-1 92/HT/599, human PBMCs) of the same molecule?
A: The value was 0.0990 µM.

Q: And the EC50 (HIV-1 92/HT/599; Human immunodeficiency virus 1, PBMC, read-out: EC50 (EC 50%), HIV-1 92/HT/599, human PBMCs)?
A: The EC50 was less than 3 nM.
